Data as given in US12595255B2, “Heteroaryl-substituted imidazole derivatives” (Hoffmann-La Roche Inc., priority 2021, dated 2026).

Tested on: Acinetobacter baumannii ATCC17961
Experiment: Antimicrobial susceptibility testing: 90% growth inhibitory concentration (IC90) determination
Type: cell-based
Details: ATCC17961, 90% growth inhibitory concentration, Iso-Sensitest broth, OD 600 nm over 16 h, 35±2° C., read-out: ATCC 17961 IC90
Description: Assay Procedures Antimicrobial Susceptibility Testing: 90% Growth Inhibitory Concentration (IC90) Determination
The in vitro antimicrobial activity of the compounds was determined according to the following procedure:
The assay used a 10-points Iso-Sensitest broth medium to measure quantitatively the in vitro activity of the compounds against Acinetobacter baumannii ATCC17961.
Stock compounds in DMSO were serially twofold diluted (e.g. range from 50 to 0.097 μM final concentration) in 384 wells microtiter plates and inoculated with 49 μl the bacterial suspension in Iso-Sensitest medium to have a final cell concentration of ˜5×10^5 CFU/ml in a final volume/well of 50 μl/well. Microtiter plates were incubated at 35±2° C.
Bacterial cell growth was determined with the measurement of optical density at λ=600 nm each 20 minutes over a time course of 16 h. Growth inhibition was calculated during the logarithmic growth of the bacterial cells with determination of the concentration inhibiting 50% (IC50) and 90% (IC90) of the growth.
Table 1 provides the 90% growth inhibitory concentrations (IC90) in micromoles per liter of the compounds of present invention obtained against the strain Acinetobacter baumannii ATCC17961.

Row | SMILES | IC90 [nM]
1 | Cc1n[nH]c2cc(F)c(-c3cnc(C(=O)Nc4ccc(C(=O)N5CCN(C(=O)C[C@@H]6CCNC6)CC5)c(Cl)c4)n3C)cc12 [Example A2, N-[3-chloro-4-[4-[2-[(3S)-pyrrolidin-3-yl]acetyl]piperazine-1-carbonyl]phenyl]-5-(6-fluoro-3-methyl-1H-indazol-5-yl)-1-methyl-imidazole-2-carboxamide] | 460
2 | Cc1nc(N(C)C)ccc1-c1cnc(C(=O)Nc2ccc(C(=O)N3CCN(C(=O)C4CCNCC4)CC3)c(Cl)c2)n1C [Example E4, N-[3-chloro-4-[4-(piperidine-4-carbonyl)piperazine-1-carbonyl]phenyl]-5-[6-(dimethylamino)-2-methyl-3-pyridyl]-1-methyl-imidazole-2-carboxamide] | 1400
3 | CN(C)c1nc(F)c(-c2cnc(C(=O)Nc3ccc(C(=O)N4CCN(C(=O)C5CC(C[N+](C)(C)C)C5)CC4)c(Cl)c3)n2C)cc1F (stereo not shown) [Example D11, [3-[4-[2-chloro-4-[[5-[6-(dimethylamino)-2,5-difluoro-3-pyridyl]-1-methyl-imidazole-2-carbonyl]amino]benzoyl]piperazine-1-carbonyl]cyclobutyl]methyl-trimethyl-ammonium] | 1500
4 | Cn1c(-c2ccc3c(c2)OCCO3)cnc1C(=O)Nc1ccc(C(=O)N2CCN(C(=O)C3CCNCC3)CC2)c(Cl)c1 [Example A20, N-[3-chloro-4-[4-(piperidine-4-carbonyl)piperazine-1-carbonyl]phenyl]-5-(2,3-dihydro-1,4-benzodioxin-6-yl)-1-methyl-imidazole-2-carboxamide] | 520
